IC50 data for 1 compound are collected here from patent US20240166627A1, “Terpyridinedione compound or salt thereof, and preparation method and application thereof” (SHENZHEN SALUBRIS PHARMACEUTICALS CO., LTD., priority 2021, published 2024).

Usually IC50 stands for the concentration that gives 50% inhibition.

The subject of the assay is production of TNFα in U937. Description: Releasing TNFα from U937 induced by LPS. The note with it: Homo sapiens, U-937; PMA-differentiated U937, LPS 100 ng/ml, 4 h; read-out: IC50 value that the compound inhibits the production of TNFα. The format is cell-based. A digest of the protocol: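 U937 cells differentiated with PMA (20 ng/ml, 48 h) were pretreated with compound (0.1% DMSO final) for 30 min at 37 °C, then stimulated with LPS (100 ng/ml) for 4 h. Supernatant TNFα was quantified by ELISA against a kit standard curve, and IC50 came from nonlinear fitting.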

Regarding `Cc1cnc(-n2cccc(C(C)(C)O)c2=O)cc1-n1c(C)cc(OCc2ncc(F)cc2F)c(Cl)c1=O` [Comparative example 1], the IC50 is 1.63 nM.
